These are literature values, as cited in publication PMC6545338, “Novel chemical starting points for drug discovery in leishmaniasis and Chagas disease” (International Journal for Parasitology: Drugs and Drug …, 2019).

The data set concerns T. cruzi. More on the design: method as in Morillo et al., 2017a. The conditions noted are these: ref Morillo et al., 2017a; for Efficacy in the STOP-CHAGAS trial: patients.

On to `O=C(Cn1ccnc1[N+](=O)[O-])NCc1ccccc1` [benznidazole], for which the “Efficacy in the STOP-CHAGAS trial” value is given as 62%. Moreover, where the note is “benznidazole-treated group”, the “Patients who had to permanently discontinue treatment due to side effects” value is 32%.

Consider `CC[C@@H]([C@H](C)O)n1ncn(-c2ccc(N3CCN(c4ccc(OC[C@@H]5CO[C@@](Cn6cncn6)(c6ccc(F)cc6F)C5)cc4)CC3)cc2)c1=O` [posaconazole], for which the “Efficacy in the STOP-CHAGAS trial” value is reported as 19%.
